Measured values reported in patent publication US10717711B2, “Amino quinazolines as kinase inhibitors” (GlaxoSmithKline Intellectual Property Development Limited, priority 2011, dated 2020).
Several values for one entry are separate records, joined by “and”; a condition that tells them apart may be missing. Equal entries are not always repeated.

Molecular target: T1, RIPK2 (full length FLAG His tagged RIPK2; RIP2 kinase) (Homo sapiens, UniProt O43353)
T1 construct: Full length FLAG His tagged RIPK2 was purified from a Baculovirus expression system; FLAG (N); 6His (N); made in house; host or cells: Spodoptera frugiperda (Sf9) insect cells, baculovirus
Assay: Fluorescent polarization based binding assay at the ATP binding pocket of RIPK2
Details: competition with fluorescently labeled ATP competitive ligand (5 nM); mean of a minimum of 2 experiments; approximate values; read-out: mean pIC50 (RIP2 kinase inhibition) (converted)
Source text: A fluorescent polarization based binding assay was developed to quantitate interaction of novel test compounds at the ATP binding pocket of RIPK2, by competition with a fluorescently labeled ATP competitive ligand. Full length FLAG His tagged RIPK2 was purified from a Baculovirus expression system and was used at a final assay concentration of twice the KDapparent. A fluorescent labeled ligand (5-({[2-({[3-({4-[(5-hydroxy-2-methylphenyl)amino]-2-pyrimidinyl}amino)phenyl]carbonyl}amino)ethyl] amino}carbonyl)-2-(6-hydroxy-3-oxo-3H-xanthen-9-yl)benzoic acid, prepared as described in WO2011/120025) was used at a final assay concentration of 5 nM. Both the enzyme and ligand were prepared in solutions in 50 mM HEPES pH7.5, 150 mM NaCl, 10 mM MgCl2, 1 mM DTT, and 1 mM CHAPS. Test compounds were prepared in 100% DMSO and 100 nL was dispensed to individual wells of a multiwell plate. Next, 5 ul RIPK2 was added to the test compounds at twice the final assay concentration, and incubated at rt for 10 min. Following the incubation, 5 ul of the fluorescent labeled ligand solution, was added to each reaction, at twice the final assay concentration, and incubated at rt for at least 10 min. Finally, samples were read on an instrument capable of measuring fluorescent polarization. Test compound inhibition was expressed as percent (%) inhibition of internal assay controls.
For concentration/dose response experiments, normalized data were fit and pIC50S determined using conventional techniques. The pIC50S are averaged to determine a mean value, for a minimum of 2 experiments.
Full-length human RIPK2 (receptor-interacting serine-threonine kinase 2) cDNA was purchased from Invitrogen (Carlsbad, Calif., USA, Clone ID:IOH6368, RIPK2-pENTR 221). Gateway® LR cloning was used to site-specifically recombine RIPK2 downstream to an N-terminal FLAG-6His contained within the destination vector pDEST8-FLAG-His6 according to the protocol described by Invitrogen. Transfection into Spodoptera frugiperda (Sf9) insect cells was performed using Cellfectin® (Invitrogen), according to the manufacturer's protocol.
Sf9 cells were grown in Excell 420 (SAFC Biosciences, Lenexa, Kans., US; Andover, Hampshire UK) growth media at 27° C., 80 rpm in shake flask until of a sufficient volume to inoculate a bioreactor. […] The insect cells were infected with Baculovirus at a multiplicity of infection (MOI) of 12.7. The cultivation was continued for a 43 hour expression phase. The infected cells were removed from the growth media by centrifugation at 2500 g using a Viafuge (Carr) continuous centrifuge at a flow rate of 80 litres/hour. The cell pellet was immediately frozen and subsequently supplied for purification.
Purification Procedure I: 9.83×10^10 Insect cells were re-suspended in 1.4 L lysis buffer (50 mM Tris (pH 8.0), 150 mM NaCl, 0.5 mM NaF, 0.1% Triton X-100, 1 mL/litre Protease Inhibitor Cocktail Set III (available from EMD Group; CalBiochem/Merck Biosciences, Gibbstown, N.J., US; Damstadt, Germany) and processed by dounce homogenization on ice. The suspension was then clarified by centrifugation at 47,900 g for 2 h, at 4° C. The lysate was decanted from the insoluble pellet and loaded at a linear flow rate of 16 cm/h onto a 55 mL FLAG-M2 affinity column (2.6×10.4 cm) that had been pre-equilibrated with 10 column volumes buffer A (50 mM Tris (pH 8.0), 150 mM NaCl, 0.5 mM NaF, 1 mL/litre Protease Inhibitor Cocktail Set III). […]

T1 sequence (O43353 whole entry): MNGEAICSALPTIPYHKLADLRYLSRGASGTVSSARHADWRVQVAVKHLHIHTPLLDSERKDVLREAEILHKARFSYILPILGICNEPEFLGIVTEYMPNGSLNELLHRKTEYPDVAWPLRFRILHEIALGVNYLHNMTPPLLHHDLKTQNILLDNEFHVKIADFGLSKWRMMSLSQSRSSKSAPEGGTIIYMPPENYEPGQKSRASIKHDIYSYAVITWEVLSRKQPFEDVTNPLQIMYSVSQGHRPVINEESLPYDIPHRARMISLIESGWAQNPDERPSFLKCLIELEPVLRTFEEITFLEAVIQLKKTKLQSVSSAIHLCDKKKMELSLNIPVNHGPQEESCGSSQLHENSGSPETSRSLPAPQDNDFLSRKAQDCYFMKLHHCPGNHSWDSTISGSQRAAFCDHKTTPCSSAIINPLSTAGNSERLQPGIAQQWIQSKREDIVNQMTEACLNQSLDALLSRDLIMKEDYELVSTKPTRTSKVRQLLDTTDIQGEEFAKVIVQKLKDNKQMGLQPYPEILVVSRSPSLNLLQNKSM

SMILES	IC50
CC(C)(C)S(=O)(=O)c1ccc2ncnc(Nc3ccc4scnc4c3)c2c1 [Example 4, N-1,3-benzothiazol-5-yl-6-[(1,1-dimethylethyl)sulfonyl]-4-quinazolinamine]	~31.6 nM and 1 to 100 nM
CC(C)S(=O)(=O)c1ccc2ncnc(Nc3ccc4scnc4c3)c2c1 [Example 6, N-1,3-benzothiazol-5-yl-6-[(1-methylethyl)sulfonyl]-4-quinazolinamine]	1 to 100 nM

Next, values leading:

IC50	SMILES
~3.16 nM and 1 to 100 nM	COc1cc2ncnc(Nc3ccc4scnc4c3)c2cc1S(=O)(=O)C(C)(C)C [Example 16, N-(6-(tert-butylsulfonyl)-7-methoxyquinazolin-4-yl)benzo[d]thiazol-5-amine]
1 to 100 nM	CC(C)(C)S(=O)(=O)c1cc2c(Nc3ccc4scnc4c3)ncnc2cc1OCCO [Example 21, 2-((4-(benzo[d]thiazol-5-ylamino)-6-(tert-butylsulfonyl)quinazolin-7-yl)oxy)ethanol]
1 to 100 nM	CC(C)(C)S(=O)(=O)c1cc2c(Nc3ccc4scnc4c3)ncnc2cc1OCC(F)(F)F [Example 23, N-(6-(tert-butylsulfonyl)-7-(2,2,2-trifluoroethoxy)quinazolin-4-yl)benzo[d]thiazol-5-amine]
